Laboratory results: patent US8471005B2 (Cephalon, Inc., priority 2008, dated 2013)
Read-outs that look alike come from different tables or passages of the source.

Experiments:
JAK2 = molecular target: T1, JAK2 (Homo sapiens, UniProt O60674); assay: Recombinant Human JAK2 Kinase Assay (TRF); format: biochemical; conditions: read-out: JAK2 Potency
T1 construct: host or cells: baculovirus expression system
How it was run: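 Baculovirus-expressed JAK2 (15 ng/ml) phosphorylated a biotinylated 15-mer peptide captured on Neutravidin, in 20 mM HEPES pH 7.2, 0.2 μM ATP, 1 mM MnCl2, 0.1% BSA, 2.5% DMSO final, 20 min at room temperature. Phosphoproduct detected by time-resolved fluorescence with Eu-N1-labelled PY100 antibody.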

ALK = molecular target: T2, ALK (Homo sapiens, UniProt Q9UM73); assay: ALK Kinase Assay (ELISA/TRF, PLC-γ substrate); format: biochemical; conditions: read-out: ALK Potency
T2 construct: host or cells: baculovirus expression system
T2 sequence (Q9UM73 19-1620): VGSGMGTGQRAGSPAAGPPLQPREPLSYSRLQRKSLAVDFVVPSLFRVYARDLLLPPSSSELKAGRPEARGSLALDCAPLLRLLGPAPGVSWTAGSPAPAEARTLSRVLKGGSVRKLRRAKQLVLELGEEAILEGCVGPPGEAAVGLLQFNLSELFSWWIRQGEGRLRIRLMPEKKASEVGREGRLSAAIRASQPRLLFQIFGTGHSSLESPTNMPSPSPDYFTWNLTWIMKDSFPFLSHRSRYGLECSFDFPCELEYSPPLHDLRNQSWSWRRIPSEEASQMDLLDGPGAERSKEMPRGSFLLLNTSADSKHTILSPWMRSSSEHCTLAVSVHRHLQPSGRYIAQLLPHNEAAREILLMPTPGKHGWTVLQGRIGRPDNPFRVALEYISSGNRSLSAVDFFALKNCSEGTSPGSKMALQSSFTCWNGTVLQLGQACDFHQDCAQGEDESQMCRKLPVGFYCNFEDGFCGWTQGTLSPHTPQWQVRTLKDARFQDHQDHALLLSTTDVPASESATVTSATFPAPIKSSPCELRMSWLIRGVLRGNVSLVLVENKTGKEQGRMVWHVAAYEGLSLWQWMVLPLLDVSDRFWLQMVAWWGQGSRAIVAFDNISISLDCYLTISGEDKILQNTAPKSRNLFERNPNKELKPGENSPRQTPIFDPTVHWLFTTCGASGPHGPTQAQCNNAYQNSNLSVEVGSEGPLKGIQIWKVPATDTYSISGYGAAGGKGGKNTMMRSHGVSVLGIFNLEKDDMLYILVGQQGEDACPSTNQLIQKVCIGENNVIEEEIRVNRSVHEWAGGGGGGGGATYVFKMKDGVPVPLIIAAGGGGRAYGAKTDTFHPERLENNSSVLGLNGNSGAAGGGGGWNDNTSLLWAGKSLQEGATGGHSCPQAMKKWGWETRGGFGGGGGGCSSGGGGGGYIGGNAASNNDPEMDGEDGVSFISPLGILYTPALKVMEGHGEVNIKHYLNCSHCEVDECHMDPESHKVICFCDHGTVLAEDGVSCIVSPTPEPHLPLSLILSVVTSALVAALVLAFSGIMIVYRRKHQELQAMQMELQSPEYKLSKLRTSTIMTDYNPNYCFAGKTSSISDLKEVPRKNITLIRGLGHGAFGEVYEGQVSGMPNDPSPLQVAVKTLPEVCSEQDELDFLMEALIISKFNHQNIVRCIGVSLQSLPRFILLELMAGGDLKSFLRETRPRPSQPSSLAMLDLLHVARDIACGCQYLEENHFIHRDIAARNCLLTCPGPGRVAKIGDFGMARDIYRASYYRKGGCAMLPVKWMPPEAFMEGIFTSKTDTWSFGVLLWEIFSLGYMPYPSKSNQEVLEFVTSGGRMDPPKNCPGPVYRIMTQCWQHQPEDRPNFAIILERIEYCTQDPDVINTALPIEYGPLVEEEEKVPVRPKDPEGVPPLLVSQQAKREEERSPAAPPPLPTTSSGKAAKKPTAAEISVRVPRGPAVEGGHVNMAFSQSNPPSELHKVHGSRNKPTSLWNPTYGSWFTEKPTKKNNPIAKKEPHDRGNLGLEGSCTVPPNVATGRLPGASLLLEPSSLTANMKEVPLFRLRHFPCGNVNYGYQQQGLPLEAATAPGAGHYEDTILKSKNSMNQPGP
How it was run: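 First, plates are coated with substrate (phospholipase C-γ, 10 μg/mL, TBS). Next, 30 ng/ml ALK initiates phosphorylation for 15 min at 37° C. Then Eu-N1 PT66 antibody is added for detection, and a nonlinear dose-response fit of percent inhibition yields IC50.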

[1] = JAK2 kinase inhibition, 0.2 μM ATP
[2] = ALK kinase inhibition, 1 μM ATP

T1 sequence (O60674 whole entry): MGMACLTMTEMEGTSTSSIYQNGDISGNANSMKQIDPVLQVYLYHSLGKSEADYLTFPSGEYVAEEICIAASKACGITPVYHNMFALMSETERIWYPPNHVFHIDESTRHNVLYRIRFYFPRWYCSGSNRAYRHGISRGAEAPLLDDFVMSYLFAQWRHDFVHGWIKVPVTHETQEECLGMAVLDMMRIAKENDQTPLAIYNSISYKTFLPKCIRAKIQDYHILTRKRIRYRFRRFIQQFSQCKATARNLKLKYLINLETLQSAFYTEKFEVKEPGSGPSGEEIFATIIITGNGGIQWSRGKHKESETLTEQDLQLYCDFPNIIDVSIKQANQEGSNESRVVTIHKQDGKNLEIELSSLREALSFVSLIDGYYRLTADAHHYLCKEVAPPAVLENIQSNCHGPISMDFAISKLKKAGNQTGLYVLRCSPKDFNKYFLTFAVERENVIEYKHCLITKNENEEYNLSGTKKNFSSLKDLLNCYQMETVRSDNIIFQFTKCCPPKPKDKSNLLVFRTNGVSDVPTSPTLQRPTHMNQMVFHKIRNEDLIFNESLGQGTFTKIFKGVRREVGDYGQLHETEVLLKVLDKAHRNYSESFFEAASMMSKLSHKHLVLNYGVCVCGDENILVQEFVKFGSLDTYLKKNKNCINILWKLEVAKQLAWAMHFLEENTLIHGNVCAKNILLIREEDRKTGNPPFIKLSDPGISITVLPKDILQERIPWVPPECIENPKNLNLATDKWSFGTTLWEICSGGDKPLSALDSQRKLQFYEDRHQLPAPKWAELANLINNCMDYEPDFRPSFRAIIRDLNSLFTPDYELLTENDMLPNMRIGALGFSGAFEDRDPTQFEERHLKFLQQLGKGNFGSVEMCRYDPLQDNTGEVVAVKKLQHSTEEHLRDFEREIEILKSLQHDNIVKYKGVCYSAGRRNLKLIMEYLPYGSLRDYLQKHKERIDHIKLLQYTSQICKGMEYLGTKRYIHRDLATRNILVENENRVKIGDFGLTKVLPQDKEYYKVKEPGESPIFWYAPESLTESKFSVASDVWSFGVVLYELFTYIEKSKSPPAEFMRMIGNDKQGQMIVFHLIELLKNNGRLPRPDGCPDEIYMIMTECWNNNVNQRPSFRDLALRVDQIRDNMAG

Compound | IC50 (JAK2; JAK2 Kinase Inhibition) [nM] | IC50 (ALK; ALK Kinase Inhibition) [nM] | IC50 (JAK2; [1]) [nM] | IC50 (ALK; [2]) [nM]
CS(=O)(=O)c1ccc(-c2ccc3cnc(Nc4ccc(C5(C#N)CCN(CC(N)=O)CC5)cc4)nn23)cc1 [Example 1547, 2-(4-Cyano-4-{4-[7-(4-methanesulfonyl-phenyl)-pyrrolo[2,1-f][1,2,4]triazin-2-ylamino]-phenyl}-piperidin-1-yl)-acetamide] | < 100 | 1000 to 10000 | – | –
COc1ccccc1-c1ccc2cnc(Nc3ccc(C4(C#N)CCN(CC(N)=O)CC4)cc3)nn12 [Example 1548, 2-(4-Cyano-4-{4-[7-(2-methoxy-phenyl)-pyrrolo[2,1-f][1,2,4]triazin-2-ylamino]-phenyl}-piperidin-1-yl)-acetamide] | < 100 | 100 to 1000 | – | –
CN(c1ccccc1-c1ccc2cnc(Nc3ccc(C4(C#N)CCN(CC(N)=O)CC4)cc3)nn12)S(C)(=O)=O [Example 1549, 2-[4-Cyano-4-(4-{7-[2-(methanesulfonyl-methyl-amino)-phenyl]-pyrrolo[2,1-f][1,2,4]triazin-2-ylamino}-phenyl)-piperidin-1-yl]-acetamide] | < 100 | < 100 | – | –
CC(C)(C)NS(=O)(=O)c1cccc(-c2ccc3cnc(Nc4cccc(C5(O)CCNCC5)c4)nn23)c1 [Example 1550, N-tert-Butyl-3-{2-[3-(4-hydroxy-piperidin-4-yl)-phenylamino]-pyrrolo[2,1-f][1,2,4]triazin-7-yl}-benzenesulfonamide] | < 100 | < 100 | – | –
COc1ccc(-c2ccc3cnc(Nc4cccc(C5(O)CCNCC5)c4)nn23)cn1 [Example 1551, 4-{3-[7-(6-Methoxy-pyridin-3-yl)-pyrrolo[2,1-f][1,2,4]triazin-2-ylamino]-phenyl}-piperidin-4-ol] | < 100 | 100 to 1000 | – | –
CS(=O)(=O)c1cccc(-c2ccc3cnc(Nc4cccc(C5(O)CCNCC5)c4)nn23)c1 [Example 1552, 4-{3-[7-(3-Methanesulfonyl-phenyl)-pyrrolo[2,1-f][1,2,4]triazin-2-ylamino]-phenyl}-piperidin-4-ol] | < 100 | 100 to 1000 | – | –
CN(c1ccccc1-c1cc(Cl)c2cnc(Nc3ccc(C4CCN(CC(N)=O)CC4)cc3)nn12)S(C)(=O)=O [Example 1553, 2-[4-(4-{5-Chloro-7-[2-(methanesulfonyl-methyl-amino)-phenyl]-pyrrolo[2,1-f][1,2,4]triazin-2-ylamino}-phenyl)-piperidin-1-yl]-acetamide] | < 100 | < 100 | – | –
COc1cc(C2CCN(CC(N)=O)CC2)ccc1Nc1ncc2c(Cl)cc(-c3ccccc3N(C)S(C)(=O)=O)n2n1 [Example 1554, 2-[4-(4-{5-Chloro-7-[2-(methanesulfonyl-methyl-amino)-phenyl]-pyrrolo[2,1-f][1,2,4]triazin-2-ylamino}-3-methoxy-phenyl)-piperidin-1-yl]-acetamide] | 1000 to 10000 | < 100 | – | –
COc1ccc(-c2cc(Cl)c3cnc(Nc4ccc(C5CCN(CC(N)=O)CC5)cc4)nn23)cn1 [Example 1555, 2-(4-{4-[5-Chloro-7-(6-methoxy-pyridin-3-yl)-pyrrolo[2,1-f][1,2,4]triazin-2-ylamino]-phenyl}-piperidin-1-yl)-acetamide] | < 100 | 100 to 1000 | – | –
CC1(C)C(=O)Nc2ccc(Nc3ncc4ccc(-c5ccccc5N5CCCS5(=O)=O)n4n3)cc21 [Example 1556, 5-({7-[2-(1,1-Dioxido-1,2-thiazolidin-2-yl)phenyl]pyrrolo[2,1-f][1,2,4]triazin-2-yl}amino)-3,3-dimethyl-1,3-dihydro-2H-indol-2-one] | < 100 | < 100 | – | –
CN1CCN(c2cccc(Nc3ncc4ccc(-c5cccc(CO)c5)n4n3)c2)CC1 [Example 1557, (3-{2-[3-(4-Methyl-piperazin-1-yl)-phenylamino]-pyrrolo[2,1-f][1,2,4]triazin-7-yl}-phenyl)-methanol] | < 100 | < 100 | – | –
CN1CCN(c2cccc(Nc3ncc4ccc(-c5cccc(COC(C)(C)C)c5)n4n3)c2)CC1 [Example 1558, [7-(3-tert-Butoxymethyl-phenyl)-pyrrolo[2,1-f][1,2,4]triazin-2-yl]-[3-(4-methyl-piperazin-1-yl)-phenyl]-amine] | < 100 | 100 to 1000 | – | –
CC(=O)Nc1cccc(Nc2ncc3ccc(-c4cccc(COC(C)(C)C)c4)n3n2)c1 [Example 1559, N-{3-[7-(3-tert-Butoxymethyl-phenyl)-pyrrolo[2,1-f][1,2,4]triazin-2-ylamino]-phenyl}-acetamide] | < 100 | 1000 to 10000 | – | –
CC(C)(C)OCc1cccc(-c2ccc3cnc(Nc4cccc(N5CCOCC5)c4)nn23)c1 [Example 1560, [7-(3-tert-Butoxymethyl-phenyl)-pyrrolo[2,1-f][1,2,4]triazin-2-yl]-(3-morpholin-4-yl-phenyl)-amine] | < 100 | > 10000 | – | –
OCc1cccc(-c2ccc3cnc(Nc4cccc(N5CCOCC5)c4)nn23)c1 [Example 1561, {3-[2-(3-Morpholin-4-yl-phenylamino)-pyrrolo[2,1-f][1,2,4]triazin-7-yl]-phenyl}-methanol] | < 100 | 1000 to 10000 | – | –
c1ccc(-c2ccc3cnc(Nc4ccc5nc[nH]c5c4)nn23)nc1 [Example 1562, (3H-Benzimidazol-5-yl)-(7-pyridin-2-yl-pyrrolo[2,1-f][1,2,4]triazin-2-yl)-amine] | < 100 | 1000 to 10000 | – | –

Compound | IC50 (JAK2; JAK2 Kinase Inhibition) [nM] | IC50 (ALK; ALK Kinase Inhibition) [nM] | IC50 (JAK2; [1]) [nM] | IC50 (ALK; [2]) [nM]
CC1(C)C(=O)Nc2cc(Nc3ncc4ccc(-c5ccccn5)n4n3)ccc21 [Example 1563, 3,3-Dimethyl-6-(7-pyridin-2-yl-pyrrolo[2,1-f][1,2,4]triazin-2-ylamino)-1,3-dihydro-indol-2-one] | < 100 | 100 to 1000 | – | –
NC(=O)CN1CCC(c2ccc(Nc3ncc4ccc(-c5cnccn5)n4n3)cc2)CC1 [Example 1564, 2-{4-[4-(7-Pyrazin-2-yl-pyrrolo[2,1-f][1,2,4]triazin-2-ylamino)-phenyl]-piperidin-1-yl}-acetamide] | < 100 | 1000 to 10000 | – | –
COc1ccccc1-c1ccc2cnc(Nc3cccc(C4(O)CCNCC4)c3)nn12 [Example 1565, 4-{3-[7-(2-Methoxy-phenyl)-pyrrolo[2,1-f][1,2,4]triazin-2-ylamino]-phenyl}-piperidin-4-ol] | < 100 | < 100 | – | –
COc1ccc(-c2ccc3cnc(Nc4cccc(C5CNCCN5)c4)nn23)cn1 (stereo not shown) [Example 1566, [7-(6-Methoxy-pyridin-3-yl)-pyrrolo[2,1-f][1,2,4]triazin-2-yl]-(3-piperazin-2-yl-phenyl)-amine] | < 100 | 1000 to 10000 | – | –
CN1CCN(C)C(c2ccc(Nc3ncc4ccc(-c5cccc(S(=O)(=O)NC(C)(C)C)c5)n4n3)cc2)C1 (stereo not shown) [Example 1567, N-tert-Butyl-3-{2-[4-(1,4-dimethyl-piperazin-2-yl)-phenylamino]-pyrrolo[2,1-f][1,2,4]triazin-7-yl}-benzenesulfonamide] | < 100 | 100 to 1000 | – | –
NC(=O)CN1CCC(c2ccc(Nc3ncc4ccc(-c5ncccn5)n4n3)cc2)CC1 [Example 1568, 2-{4-[4-(7-Pyrimidin-2-yl-pyrrolo[2,1-f][1,2,4]triazin-2-ylamino)-phenyl]-piperidin-1-yl}-acetamide] | < 100 | 1000 to 10000 | – | –
CS(=O)(=O)c1ccc(-c2ccc3cnc(Nc4ccc(C5CCNCC5)cc4)nn23)cc1 [Example 1571, [7-(4-Methanesulfonyl-phenyl)-pyrrolo[2,1-f][1,2,4]triazin-2-yl]-(4-piperidin-4-yl-phenyl)-amine] | < 100 | 100 to 1000 | – | –
COc1ncccc1-c1ccc2cnc(Nc3ccc4c(c3)CCN(CC(=O)N(C)C)CC4)nn12 [Example 1572] | < 100 | 100 to 1000 | – | –
CN(C)C(=O)CN1CCc2ccc(Nc3ncc4ccc(Br)n4n3)cc2CC1 [Example 1574] | < 100 | 1000 to 10000 | – | –
COc1cncc(-c2ccc3cnc(Nc4ccc5c(c4)CCN(CC(=O)N(C)C)CC5)nn23)c1 [Example 1575] | < 100 | 100 to 1000 | – | –
(7-Pyridin-3-yl-pyrrolo[2,1-f][1,2,4]triazin-2-yl)-[4-(2-pyrrolidin-1-yl-ethoxy)-phenyl]-amine [Example 126] | < 100 | 100 to 1000 | – | –
(S)-1-(4-{4-[7-(4-Chloro-2-methoxy-phenyl)-pyrrolo[2,1-f][1,2,4]triazin-2-ylamino]-3-methoxy-phenyl}-piperazin-1-yl)-propan-2-ol [Example 487] | – | – | 100 to 1000 | < 100
(±)-1-Fluoro-3-(4-{3-methoxy-4-[7-(2-methoxy-phenyl)-pyrrolo[2,1-f][1,2,4]triazin-2-ylamino]-phenyl}-piperidin-1-yl)-propan-2-ol [Example 825] | – | – | 100 to 1000 | < 100
N-[2-(2-{4-[4-(2-Hydroxy-ethyl)-piperazin-1-yl]-phenylamino}-pyrrolo[2,1-f][1,2,4]triazin-7-yl)-phenyl]-N-methyl-methanesulfonamide [Example 1171] | – | – | < 100 | < 100
N-[2-(2-{4-[4-(2-Hydroxy-ethylamino)-piperidin-1-yl]-2-methoxy-phenylamino}-pyrrolo[2,1-f][1,2,4]triazin-7-yl)-phenyl]-N-methyl-methanesulfonamide [Example 798] | – | – | 100 to 1000 | < 100
N-{2-[2-(1-Methyl-2-oxo-2,3,4,5-tetrahydro-1H-benzo[b]azepin-7-ylamino)pyrrolo[2,1-f][1,2,4]triazin-7-yl]-phenyl}methanesulfonamide [Example 625] | – | – | < 100 | 100 to 1000
